Reference: the NIST ThermoML archive (doi:10.1021/je900199j)
Several values for one entry are separate records, joined by “and”; a condition that tells them apart may be missing. Equal entries are not always repeated. ± gives the expanded uncertainty stated by the source.

Test: mn = molality of the nth substance listed, in mol/kg
Details: 101 kPa, Liquid; for speed of sound: Frequency=4 MHz

[Cl-].[K+] [potassium chloride] + O
speed of sound (298.15 K, m1 = 2.13): 1592.8 ± 4.2 m/s
mass density (298.15 K, m1 = 2.13): 1087.7 ± 1.2 kg/m3
speed of sound (303.15 K, m1 = 2.13): 1600.4 ± 4.2 m/s
mass density (303.15 K, m1 = 2.13): 1085.7 ± 0.8 kg/m3
speed of sound (308.15 K, m1 = 2.13): 1608 ± 4.2 m/s
mass density (308.15 K, m1 = 2.13): 1083.6 ± 0.8 kg/m3
speed of sound (313.15 K, m1 = 2.13): 1614 ± 4.2 m/s
mass density (313.15 K, m1 = 2.13): 1081.3 ± 0.9 kg/m3
speed of sound (318.15 K, m1 = 2.13): 1617.2 ± 4.2 m/s
mass density (318.15 K, m1 = 2.13): 1078.8 ± 0.9 kg/m3
speed of sound (323.15 K, m1 = 2.13): 1622 ± 4.3 m/s
mass density (323.15 K, m1 = 2.13): 1076.1 ± 1.3 kg/m3

O=[N+]([O-])[O-].[K+] [potassium nitrate] + O
speed of sound (298.15 K, m1 = 2.19): 1558.8 ± 4.2 m/s
mass density (298.15 K, m1 = 2.19): 1115 ± 1.2 kg/m3
speed of sound (303.15 K, m1 = 2.19): 1566.8 ± 4.1 m/s
mass density (303.15 K, m1 = 2.19): 1112.5 ± 0.9 kg/m3
speed of sound (308.15 K, m1 = 2.19): 1572.8 ± 4.2 m/s and 1572.6 ± 4.2 m/s
mass density (308.15 K, m1 = 2.19): 1109.8 ± 0.9 kg/m3
speed of sound (313.15 K, m1 = 2.19): 1577.6 ± 4.2 m/s
mass density (313.15 K, m1 = 2.19): 1107 ± 0.9 kg/m3
speed of sound (318.15 K, m1 = 2.19): 1582 ± 4.2 m/s
mass density (318.15 K, m1 = 2.19): 1104 ± 1 kg/m3
speed of sound (323.15 K, m1 = 2.19): 1586.4 ± 4.2 m/s
mass density (323.15 K, m1 = 2.19): 1100.9 ± 1.3 kg/m3
